# Assay results from ChEMBL document CHEMBL1125873 (J Med Chem, 1991).
# Experiments:
# [1] = Half-life value of the compound.; type: ADME
# [2] = Loss of first equivalent halide ion using Chloride ion electrode experiments.; type: ADME
compound,measurement,setting,value
O=P(O)(NCCCl)NCCCl [PALIFOSFAMIDE],half-life,[1],1.15 h
same,k x10e3,[2],10 min-1
